Each compound was assayed on HBV rcDNA in HepDE19 cells (assay: HepDE19 assay with bDNA quantitation of HBV rcDNA). Conditions: Hepatitis B virus, HepDE19, 168 h, inhibition of rcDNA formation in HepDE19 cells (HepG2 derived), Tet-free medium, 7 day incubation, Quantigene 2.0 bDNA readout, top concentration 25 μM; read-out: DE-19bDNA EC50.
Format: cell-based, hepatitis B virus (HBV)
Summary of the method: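 Cytotoxicity run on replicate plates (5,000 cells/well, 4 days, ATP luminescence, CC50), while antiviral plates (50,000 cells/well) received compound for 7 days after tetracycline withdrawal to induce HBV replication. Top dose 25 μM, 8 points, 0.5% DMSO; rcDNA by branched-DNA assay, % inhibition fitted (4-parameter) for EC50 and EC90.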

Point of comparison: `CC1Cc2[nH]c(=O)c3ccccc3c2C(N(C)C(=O)Nc2ccc(F)c(Cl)c2)C1` (racemic) [Compound 26, 3-(3-Chloro-4-fluorophenyl)-1-methyl-1-(3-methyl-6-oxo-1,2,3,4,5,6-hexahydrophenanthridin-1-yl)urea], EC50 2.9 µM. Against it:
- CN(C(=O)Nc1ccc(O)c(Cl)c1)[C@@H]1COCc2[nH]c(=O)c3cc(F)c(F)cc3c21 [Compound 148, (S)-3-(3-Chloro-4-hydroxyphenyl)-1-(8,9-difluoro-6-oxo-1,4,5,6-tetrahydro-2H-pyrano[3,4-c]isoquinolin-1-yl)-1-methylurea] — 3.8-fold lower, 0.76 µM
- CN(C(=O)Nc1ccc(F)cc1)C1CCCc2[nH]c(=O)c3cc(F)c(F)cc3c21 (stereo not shown) [Compound 19, 1-(8,9-Difluoro-6-oxo-1,2,3,4,5,6-hexahydrophenanthridin-1-yl)-3-(4-fluorophenyl)-1-methylurea] — 18-fold lower, 0.16 µM
- CN(C(=O)Nc1ccc(F)c(C(F)F)c1)[C@@H]1COCc2c1c1cc(F)c(F)cc1c(=O)n2CCN [Compound 253, (S)-1-(5-(2-Aminoethyl)-8,9-difluoro-6-oxo-1,4,5,6-tetrahydro-2H-pyrano[3,4-c]isoquinolin-1-yl)-3-(3-(difluoromethyl)-4-fluorophenyl)-1-methylurea] — 3.2-fold lower, 0.91 µM

Same assay, conditions: inhibition of rcDNA formation in HepDE19 cells (HepG2 derived), Tet-free medium, 7 day incubation, Quantigene 2.0 bDNA readout, top concentration 25 μM; read-out: DE-19bDNA EC50

Point of comparison: `CN(C(=O)Nc1ccc(F)c(F)c1)C1CCCc2[nH]c(=O)c3c(c21)COCC3` (single isomer, unassigned) [Compound 82, 3-(3,4-Difluorophenyl)-1-methyl-1-(5-oxo-3,4,5,6,7,8,9,10-octahydro-1H-pyrano[4,3-c]quinolin-10-yl)urea], EC50 7.3 µM. Against it:
- CN(C(=O)Nc1ccc(F)c(Cl)c1)C1COCc2[nH]c(=O)c3c(c21)CCOC3 (single isomer, unassigned) [Compound 91, 3-(3-Chloro-4-fluorophenyl)-1-methyl-1-(6-oxo-1,2,4,5,6,7,9,10-octahydrodipyrano[3,4-b:4′,3′-d]pyridin-1-yl)urea] — 1.5-fold higher, 11 µM
- CN(C(=O)Nc1ccc(F)c(F)c1)C1COCc2[nH]c(=O)c3c(c21)CCOC3 (single isomer, unassigned) [Compound 94, 3-(3,4-Difluorophenyl)-1-methyl-1-(6-oxo-1,2,4,5,6,7,9,10-octahydrodipyrano[3,4-b:4′,3′-d]pyridin-1-yl)urea] — 9.9-fold lower, 0.74 µM
- CN1Cc2[nH]c(=O)c3cc(F)ccc3c2C(N(C)C(=O)Nc2ccc(F)c(C#N)c2)C1 (single isomer, unassigned) [Compound 163, 3-(3-Cyano-4-fluorophenyl)-1-(8-fluoro-3-methyl-6-oxo-1,2,3,4,5,6-hexahydrobenzo[c][1,7]naphthyridin-1-yl)-1-methylurea] — 3.2-fold higher, 23 µM
- CN(C(=O)N1Cc2ccccc2C1)C1CNCc2[nH]c(=O)c3cc(F)c(F)cc3c21 (single isomer, unassigned) [Compound 223, N-(8,9-Difluoro-6-oxo-1,2,3,4,5,6-hexahydrobenzo[c][1,7]naphthyridin-1-yl)-N-methylisoindoline-2-carboxamide] — 3.2-fold lower, 2.3 µM
- CC(C)CN(C(=O)Nc1ccc(F)c(C#N)c1)C1COCc2[nH]c(=O)c3cc(F)c(F)cc3c21 (single isomer, unassigned) [Compound 122, 3-(3-Cyano-4-fluorophenyl)-1-(8,9-difluoro-6-oxo-1,4,5,6-tetrahydro-2H-pyrano[3,4-c]isoquinolin-1-yl)-1-isobutylurea] — 61-fold lower, 0.12 µM

Reference: patent publication US20230108906A1, “SUBSTITUTED BICYCLIC AND TRICYCLIC UREAS AND AMIDES, ANALOGUES THEREOF, AND METHODS USING SAME” (Arbutus Biopharma Corporation, priority 2019, published 2023)
